38 compounds from patent US20240360151A1 (SANOFI, priority 2023, published 2024) can be followed below.

Each structure is given as a SMILES string.

The target of this assay is T1, NLRP3 inflammasome (Homo sapiens, UniProt Q96P20).
T1 construct: endogenous in cells; host or cells: THP-1 monocytic cells
T1 sequence (Q96P20 whole entry): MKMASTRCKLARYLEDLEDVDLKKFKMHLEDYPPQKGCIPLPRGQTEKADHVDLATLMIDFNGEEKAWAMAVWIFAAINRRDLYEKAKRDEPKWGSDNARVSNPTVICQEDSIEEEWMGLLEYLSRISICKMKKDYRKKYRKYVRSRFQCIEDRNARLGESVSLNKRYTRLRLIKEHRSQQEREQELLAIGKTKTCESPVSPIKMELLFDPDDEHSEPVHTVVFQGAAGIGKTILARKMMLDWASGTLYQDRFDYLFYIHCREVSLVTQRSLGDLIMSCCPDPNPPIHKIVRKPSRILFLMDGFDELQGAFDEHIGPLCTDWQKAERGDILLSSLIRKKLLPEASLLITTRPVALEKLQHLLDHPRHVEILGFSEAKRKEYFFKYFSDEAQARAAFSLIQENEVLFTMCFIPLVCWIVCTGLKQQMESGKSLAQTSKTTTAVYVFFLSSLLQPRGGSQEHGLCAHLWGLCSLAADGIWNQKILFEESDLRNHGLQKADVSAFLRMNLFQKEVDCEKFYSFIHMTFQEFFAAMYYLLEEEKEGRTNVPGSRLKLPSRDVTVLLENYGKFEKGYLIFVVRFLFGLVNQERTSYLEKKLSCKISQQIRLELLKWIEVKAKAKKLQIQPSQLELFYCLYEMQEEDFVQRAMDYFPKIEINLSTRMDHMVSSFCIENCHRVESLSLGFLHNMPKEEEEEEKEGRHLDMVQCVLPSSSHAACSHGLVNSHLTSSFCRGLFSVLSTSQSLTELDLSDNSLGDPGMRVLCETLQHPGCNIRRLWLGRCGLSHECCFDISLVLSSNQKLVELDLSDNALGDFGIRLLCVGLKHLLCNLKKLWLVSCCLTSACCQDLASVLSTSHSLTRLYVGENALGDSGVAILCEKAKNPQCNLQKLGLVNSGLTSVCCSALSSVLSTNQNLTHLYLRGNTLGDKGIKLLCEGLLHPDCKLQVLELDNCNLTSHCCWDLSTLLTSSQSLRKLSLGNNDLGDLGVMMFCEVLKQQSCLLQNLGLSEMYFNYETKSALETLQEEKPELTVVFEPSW
The assay is described as follows: IL-1β secretion assay (NLRP3 IC50) in LPS-primed, nigericin-activated THP-1 cells, HTRF. Format: cell-based. The following applies: monocytic THP-1 cells; LPS 10 ng/mL 3 h priming, then compound + nigericin 10 μM 2 h; relative IC50, 10 concentrations, geometric mean. An outline of the steps:
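THP-1 cells primed with LPS 10 ng/mL for 3 h at 37° C., then compound (10-point 1:3 dilution, 0.1% DMSO) added with 10 μM nigericin for 2 h. Supernatant IL-1β measured by HTRF; relative IC50 from a 4-parameter logistic fit, reported as geometric mean.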
Background: In TR-FRET formats the signal depends on donor and acceptor labels being close together.
Take `Cc1ccc(O)c(-c2ccc(N3CCO[C@H](CO)C3)nn2)c1` [Example 102, 2-[6-[(2S)-2-(hydroxymethyl)morpholin-4-yl]pyridazin-3-yl]-4-methyl-phenol]: the 50% inhibitory concentration (IC50) was greater than 10000 nM. Turning to `Cc1cc(C)c(-c2ccc(N3CCCc4c3ccnc4O)nn2)c(O)c1` [Example 242, 1-[6-(2-hydroxy-4,6-dimethyl-phenyl)pyridazin-3-yl]-3,4-dihydro-2H-1,6-naphthyridin-5-ol], the IC50 amounted to 2120 nM. As to `Cc1cc(C)c(-c2ccc(N3CC[C@@]4(COCCN4C)C3)nn2)c(O)c1` [Example 451, 3,5-dimethyl-2-[6-[(5S)-6-methyl-9-oxa-2,6-diazaspiro[4.5]decan-2-yl]pyridazin-3-yl]phenol], the half-maximal inhibitory concentration (IC50) is 1650 nM. For `Cc1cc(C(F)(F)F)cc(O)c1-c1ccc(N2CC[C@@H]3CCN(C)C[C@H]32)nn1` (racemic) [Example 364, 2-[6-[rac-(3aS,7aS)-6-methyl-3,3a,4,5,7,7a-hexahydro-2H-pyrrolo[2,3-c]pyridin-1-yl]pyridazin-3-yl]-3-methyl-5-(trifluoromethyl)phenol], the IC50 was determined as 858 nM.

For `CNCC[C@@H]1CN(c2ccc(-c3c(C)cc(C(F)(F)F)cc3O)nn2)CCO1` (single isomer, unassigned) [Example 331], the IC50 was 1080 nM. The figure for `Cc1cc(C(F)(F)F)cc(O)c1-c1ccc(N2CCOC(CN(C)C)C2)nn1` (centres unmarked) [Example 24, 2-[6-[2-[(dimethylamino)methyl]morpholin-4-yl]pyridazin-3-yl]-3-methyl-5-(trifluoromethyl)phenol] is 638 nM.

Regarding `CC(=O)N1CC[C@H]2CCN(c3ccc(-c4c(C)cc(C)cc4O)nn3)[C@H]2C1` (single isomer, unassigned) [Example 413], the 50% inhibitory concentration (IC50) came to 500 nM. The figure for `Cc1cc(C(F)(F)F)cc(O)c1-c1ccc(N2CCO[C@H](CC#N)C2)nn1` (single isomer, unassigned) [Example 327] is 292 nM; for `Cc1cc(C)c(-c2ccc(N3CCO[C@@H]4CCN(CC(F)(F)F)C[C@@H]43)nn2)c(O)c1` [Example 355, 2-[6-[(4aS,8aR)-6-(2,2,2-trifluoroethyl)-3,4a,5,7,8,8a-hexahydro-2H-pyrido[4,3-b][1,4]oxazin-4-yl]pyridazin-3-yl]-3,5-dimethyl-phenol] it is 1170 nM. Regarding `Cc1cc(C(F)(F)F)cc(O)c1-c1ccc(N2CC[C@H](CO)C2=O)nn1` (single isomer, unassigned) [Example 325], the IC50 was 275 nM. For `Cc1cc(O)c(-c2ccc(N3CCO[C@H](CO)C3)nn2)c(C(F)(F)F)c1` [Example 509, 2-[6-[(2S)-2-(hydroxymethyl)morpholin-4-yl]pyridazin-3-yl]-5-methyl-3-(trifluoromethyl)phenol], the IC50 was 16 nM.

For the compound `Cc1cc(C)c(-c2ccc(N3CCC4(CN(C)CCO4)C3)nn2)c(O)c1` (centres unmarked) [Example 440, 3,5-dimethyl-2-[6-(9-methyl-6-oxa-2,9-diazaspiro[4.5]decan-2-yl)pyridazin-3-yl]phenol], the IC50 is 3280 nM. The figure for `CC(=O)N1CC[C@H]2OCCN(c3ccc(-c4c(C)cccc4O)nn3)[C@H]2C1` [Example 409, 1-[(4aS,8aR)-4-[6-(2-hydroxy-6-methyl-phenyl)pyridazin-3-yl]-3,4a,5,7,8,8a-hexahydro-2H-pyrido[4,3-b][1,4]oxazin-6-yl]ethanone] is 638 nM; for `Cc1cc(C(F)(F)F)cc(O)c1-c1ccc(N2CCC[C@@H]3[C@H]2CCCN3C)nn1` [Example 516, 2-[6-[(4aR,8aR)-5-methyl-2,3,4,4a,6,7,8,8a-octahydro-1,5-naphthyridin-1-yl]pyridazin-3-yl]-3-methyl-5-(trifluoromethyl)phenol] it is 1080 nM; for `Cc1cc(C)c(-c2ccc(N3CCO[C@@H](C4(N)CC4)C3)nn2)c(O)c1` (single isomer, unassigned) [Example 136] it is 3030 nM. With `Cc1cc(N2CC[C@H]3CCN(C)C[C@H]32)nnc1-c1ccc(Cl)cc1O` (single isomer, unassigned) [Example 469], the IC50 was determined as 1 nM. The same measure for `CC(=O)N1CC[C@@H]2CCN(c3nnc(-c4c(C)cc(C)cc4O)cc3C(F)F)[C@@H]2C1` (single isomer, unassigned) [Example 512]: 276 nM; for `Cc1ccc(-c2cc(C)c(N3CCO[C@H](CO)C3)nn2)c(O)c1` [Example 110, 2-[6-[(2S)-2-(hydroxymethyl)morpholin-4-yl]-5-methyl-pyridazin-3-yl]-5-methyl-phenol]: 3760 nM.

On to `CC(=O)N1CC[C@H]2CCN(c3cc(C)c(-c4ccc(C)cc4O)nn3)[C@H]2C1` [Example 457, 1-[(3aR,7aR)-1-[6-(2-hydroxy-4-methyl-phenyl)-5-methyl-pyridazin-3-yl]-3,3a,4,5,7,7a-hexahydro-2H-pyrrolo[2,3-c]pyridin-6-yl]ethenone], for which the IC50 turned out to be 432 nM. For `Cc1cc(C)c(-c2ccc(N3CC4(CCC(O)C4)C3)nn2)c(O)c1` (centres unmarked) [Example 84, 2-[6-(2-hydroxy-4,6-dimethyl-phenyl)pyridazin-3-yl]-2-azaspiro[3.4]octan-6-ol], the IC50 is 1770 nM. As to `Cc1cc(C)c(-c2ccc(N3C[C@H]4NCCO[C@@H]4C3)nn2)c(O)c1` [Example 125, 2-[6-[(4aR,7aR)-3,4,4a,5,7,7a-hexahydro-2H-pyrrolo[3,4-b][1,4]oxazin-6-yl]pyridazin-3-yl]-3,5-dimethylphenol], the concentration for half-maximal inhibition (IC50) worked out at 1320 nM. The figure for `Cc1cc(C)c(-c2ccc(N3C[C@H](O)CO3)nn2)c(O)c1` [Example 179, (4S)-2-[6-(2-hydroxy-4,6-dimethyl-phenyl)pyridazin-3-yl]isoxazolidin-4-ol] is 897 nM; for `NC1CC2(CCN(c3ccc(-c4c(O)cc(Cl)cc4Cl)nn3)CC2)C1` [Example 32, 2-[6-(2-amino-7-azaspiro[3.5]nonan-7-yl)pyridazin-3-yl]-3,5-dichloro-phenol] it is 3500 nM.

As for `CCN1CC[C@H]2CCN(c3ccc(-c4c(C)cc(Cl)cc4O)nn3)[C@H]2C1` (single isomer, unassigned) [Example 497], the 50% inhibitory concentration (IC50) stood at 0.4 nM.

Turning to `CC(=O)N1CCC[C@@H]2[C@H]1CCCN2c1ccc(-c2c(C)cc(C(F)(F)F)cc2O)nn1` [Example 462, 1-[(4aR,8aR)-5-[6-[2-hydroxy-6-methyl-4-(trifluoromethyl)phenyl]pyridazin-3-yl]-2,3,4,4a,6,7,8,8a-octahydro-1,5-naphthyridin-1-yl]ethanone], the IC50 is 251 nM. The same measure for `Cc1cc(C)c(-c2ccc(N3CCOC[C@H]3CN)nn2)c(O)c1` [Example 123, 2-[6-[(3R)-3-(aminomethyl)morpholin-4-yl]pyridazin-3-yl]-3,5-dimethyl-phenol; 2,2,2-trifluoroacetic acid]: 2020 nM. The figure for `Cc1cc(C(F)(F)F)cc(O)c1-c1ccc(N2CCO[C@@H]3CN(C)C[C@@H]32)nn1` (single isomer, unassigned) [Example 334] is 73 nM; for `Cc1cc(C)c(-c2ccc(N3CCC[C@H]4CCN(C)C[C@@H]43)nn2)c(O)c1` [Example 520, 2-[6-[(4aS,8aR)-7-methyl-2,3,4,4a,5,6,8,8a-octahydro-1,7-naphthyridin-1-yl]pyridazin-3-yl]-3,5-dimethyl-phenol] it is 55 nM; for `Cc1cc(C(F)(F)F)cc(O)c1-c1ccc(N2CC[C@H](O)CC2=O)nn1` [Example 286, (4S)-4-hydroxy-1-[6-[2-hydroxy-6-methyl-4-(trifluoromethyl)phenyl]pyridazin-3-yl]piperidin-2-one] it is 151 nM. The same measure for `Cc1cc(C(F)(F)F)cc(O)c1-c1ccc(N2CCOC(CO)C2=O)nn1` (single isomer, unassigned) [Example 420]: 601 nM; for `O=S1(=O)CCN(c2ccc(-c3c(O)cc(Cl)cc3Cl)nn2)CC1` [Example 399, 3,5-dichloro-2-[6-(1,1-dioxo-1,4-thiazinan-4-yl)pyridazin-3-yl]phenol]: 564 nM; for `NCC1CCN(c2ccc(-c3c(O)cc(Cl)cc3Cl)nn2)CC1` [Example 19, 2-[6-[4-(aminomethyl)-1-piperidyl]pyridazin-3-yl]-3,5-dichloro-phenol]: 1480 nM. `CC(=O)N1C[C@@H]2OCCN(c3ccc(-c4c(C)cc(C(F)(F)F)cc4O)nn3)[C@@H]2C1` (single isomer, unassigned) [Example 348]: the IC50 was 199 nM. The figure for `CC(=O)N1CC[C@H]2OCCN(c3cc(C(F)F)c(-c4ccc(Cl)cc4O)nn3)[C@H]2C1` [Example 442, 1-[(4aS,8aR)-4-[6-(4-chloro-2-hydroxy-phenyl)-5-(difluoromethyl)pyridazin-3-yl]-3,4a,5,7,8,8a-hexahydro-2H-pyrido[4,3-b][1,4]oxazin-6-yl]ethanone] is 195 nM; for `Cc1cc(C)c(-c2ccc(N3CC[C@]4(CN(C)CCO4)C3)nn2)c(O)c1` [Example 445, 3,5-dimethyl-2-[6-[(5S)-9-methyl-6-oxa-2,9-diazaspiro[4.5]decan-2-yl]pyridazin-3-yl]phenol] it is 1900 nM; for `Cc1cc(C)c(-c2ccc(N3CCCC4(COCCN4C)C3)nn2)c(O)c1` (centres unmarked) [Example 441, 3,5-dimethyl-2-[6-(1-methyl-4-oxa-1,8-diazaspiro[5.5]undecan-8-yl)pyridazin-3-yl]phenol] it is 4670 nM. `Cc1cc(C)c(-c2ccc(N3CCOCC34CCCN(C)C4)nn2)c(O)c1` (centres unmarked) [Example 449, 3,5-dimethyl-2-[6-(8-methyl-4-oxa-1,8-diazaspiro[5.5]undecan-1-yl)pyridazin-3-yl]phenol]: the half-maximal inhibitory concentration (IC50) came out at 4190 nM. The figure for `Cc1cc(C)c(-c2ccc(N3CCO[C@@H]4CNC[C@H]43)nn2)c(O)c1` (racemic) [Example 190, 2-[6-[rac-(4aR,7aR)-3,4a,5,6,7,7a-hexahydro-2H-pyrrolo[3,4-b][1,4]oxazin-4-yl]pyridazin-3-yl]-3,5-dimethylphenol] is 1150 nM.

What is called IC50 is the midpoint of a concentration-inhibition curve.
